Reference: article PMC5298231, “The Malaria Parasite's Lactate Transporter PfFNT Is the Target of Antiplasmodial Compounds Identified in Whole Cell Phenotypic Screens” (PLoS Pathogens, 2017)
Read-outs that look alike come from different tables or passages of the source.

Test system: erythrocytes infected with 3D7 trophozoites
Type: cell-based, Plasmodium falciparum
Settings: 6 μM

COc1ccc2c(c1)OC(O)(C(F)(F)C(F)(F)F)CC2=O (stereo not shown) [MMV007839]
Serine log2 ratio (+MMV007839/-MMV007839) (Av 3hr): 0.166
Succinate log2 ratio (+MMV007839/-MMV007839) (Av 3hr): -0.2462
Succinate semialdehyde log2 ratio (+MMV007839/-MMV007839) (Av 3hr): -0.7119
TNVK log2 ratio (+MMV007839/-MMV007839) (Av 3hr): -1.745
Threonine log2 ratio (+MMV007839/-MMV007839) (Av 3hr): 0.01502
Tryptophan log2 ratio (+MMV007839/-MMV007839) (Av 3hr): -0.2359
Tyrosine log2 ratio (+MMV007839/-MMV007839) (Av 3hr): -0.01653
UDP log2 ratio (+MMV007839/-MMV007839) (Av 3hr): -0.7159
UDP-N-acetyl-D-glucosamine log2 ratio (+MMV007839/-MMV007839) (Av 3hr): 0.05247
UDP-glucose log2 ratio (+MMV007839/-MMV007839) (Av 3hr): -0.07837
UMP log2 ratio (+MMV007839/-MMV007839) (Av 3hr): -0.2624
Uracil log2 ratio (+MMV007839/-MMV007839) (Av 3hr): -0.6081
Uric Acid log2 ratio (+MMV007839/-MMV007839) (Av 3hr): -0.1135
VD log2 ratio (+MMV007839/-MMV007839) (Av 3hr): 1.073
Valine log2 ratio (+MMV007839/-MMV007839) (Av 3hr): -0.194
Xanthine log2 ratio (+MMV007839/-MMV007839) (Av 3hr): -0.464
dADP log2 ratio (+MMV007839/-MMV007839) (Av 3hr): -1.193
dATP log2 ratio (+MMV007839/-MMV007839) (Av 3hr): -0.03116
dCDP log2 ratio (+MMV007839/-MMV007839) (Av 3hr): 0.3315
dGMP log2 ratio (+MMV007839/-MMV007839) (Av 3hr): 0.1661
dTMP log2 ratio (+MMV007839/-MMV007839) (Av 3hr): 0.1316
dTTP log2 ratio (+MMV007839/-MMV007839) (Av 3hr): -0.08156
dUMP log2 ratio (+MMV007839/-MMV007839) (Av 3hr): 1.365
myo-Inositol log2 ratio (+MMV007839/-MMV007839) (Av 3hr): -0.258
sn-Glycerol 3-phosphate log2 ratio (+MMV007839/-MMV007839) (Av 3hr): 1.559
sn-glycero-3-Phospho-1-inositol log2 ratio (+MMV007839/-MMV007839) (Av 3hr): 0.1698
Hexose-phosphate log2 ratio (+MMV007839/-MMV007839) (Av 3hr, medRt 15.0954): -0.3219
6-Phospho-D-gluconate log2 ratio (+MMV007839/-MMV007839) (Av 3hr, medRt 16.8944): -0.6275
Hexose-phosphate log2 ratio (+MMV007839/-MMV007839) (Av 3hr, medRt 17.0788): -1.577
6-Phospho-D-gluconate log2 ratio (+MMV007839/-MMV007839) (Av 3hr, medRt 17.4636): -0.2282
1-3 (2-3)-diphopshateglycerate log2 ratio (+MMV007839/-MMV007839) (Av 6hr): 0.3636
2-Hydroxyglutarate log2 ratio (+MMV007839/-MMV007839) (Av 6hr): -0.3824
2-Ketoglutarate log2 ratio (+MMV007839/-MMV007839) (Av 6hr): -0.4713
3-Phosho-D-glycerate log2 ratio (+MMV007839/-MMV007839) (Av 6hr): 0.02516
3-Phospho-serine log2 ratio (+MMV007839/-MMV007839) (Av 6hr): -0.6364
4-Aminobutanoate log2 ratio (+MMV007839/-MMV007839) (Av 6hr): 1.092
5-Phosphoribosyl-1-pyrophosphate log2 ratio (+MMV007839/-MMV007839) (Av 6hr): 0.556
ADP log2 ratio (+MMV007839/-MMV007839) (Av 6hr): -0.3027
AMP log2 ratio (+MMV007839/-MMV007839) (Av 6hr): -0.04039
ATLS log2 ratio (+MMV007839/-MMV007839) (Av 6hr): -0.1601
ATP log2 ratio (+MMV007839/-MMV007839) (Av 6hr): -0.3608
Acetyl-CoA log2 ratio (+MMV007839/-MMV007839) (Av 6hr): -0.9886
Acetyl-L-alanine log2 ratio (+MMV007839/-MMV007839) (Av 6hr): -0.3969
Adenine log2 ratio (+MMV007839/-MMV007839) (Av 6hr): -0.7079
Arginine log2 ratio (+MMV007839/-MMV007839) (Av 6hr): 0.2024
Asparagine log2 ratio (+MMV007839/-MMV007839) (Av 6hr): 0.205
Aspartic Acid log2 ratio (+MMV007839/-MMV007839) (Av 6hr): -0.08675
CDP log2 ratio (+MMV007839/-MMV007839) (Av 6hr): -0.2824
CDP-ethanolamine log2 ratio (+MMV007839/-MMV007839) (Av 6hr): -0.09908
CMP log2 ratio (+MMV007839/-MMV007839) (Av 6hr): 0.2839
CTP log2 ratio (+MMV007839/-MMV007839) (Av 6hr): -0.5655
Cholesteryl sulfate log2 ratio (+MMV007839/-MMV007839) (Av 6hr): -0.1903
Citrate log2 ratio (+MMV007839/-MMV007839) (Av 6hr): -0.1627
CoA log2 ratio (+MMV007839/-MMV007839) (Av 6hr): -0.6499
Cyclic AMP log2 ratio (+MMV007839/-MMV007839) (Av 6hr): -1.349
Cytidine log2 ratio (+MMV007839/-MMV007839) (Av 6hr): 0.1751
D-Glucono-1-4-lactone log2 ratio (+MMV007839/-MMV007839) (Av 6hr): 2.219
DALT log2 ratio (+MMV007839/-MMV007839) (Av 6hr): 0.7209
DEVG log2 ratio (+MMV007839/-MMV007839) (Av 6hr): -0.06216
DGLA log2 ratio (+MMV007839/-MMV007839) (Av 6hr): 0.8365
DLS log2 ratio (+MMV007839/-MMV007839) (Av 6hr): -0.1236
Deoxycytidine log2 ratio (+MMV007839/-MMV007839) (Av 6hr): 1.626
Dihydroorotate log2 ratio (+MMV007839/-MMV007839) (Av 6hr): -1.004
ESFG log2 ratio (+MMV007839/-MMV007839) (Av 6hr): 0.5044
EVGG log2 ratio (+MMV007839/-MMV007839) (Av 6hr): -0.2203
Erythrose 4-phosphate log2 ratio (+MMV007839/-MMV007839) (Av 6hr): -0.7036
FAD log2 ratio (+MMV007839/-MMV007839) (Av 6hr): -0.616
FMN log2 ratio (+MMV007839/-MMV007839) (Av 6hr): -0.6137
Farnesyl diphosphate log2 ratio (+MMV007839/-MMV007839) (Av 6hr): -0.2783
Folate log2 ratio (+MMV007839/-MMV007839) (Av 6hr): -0.4942
Fructose-1-6-bisphosphate log2 ratio (+MMV007839/-MMV007839) (Av 6hr): 0.3974
Fructose-6-Phosphate log2 ratio (+MMV007839/-MMV007839) (Av 6hr): -0.1081
GDP log2 ratio (+MMV007839/-MMV007839) (Av 6hr): -0.8963
GDP-mannose log2 ratio (+MMV007839/-MMV007839) (Av 6hr): -1.076
GMP log2 ratio (+MMV007839/-MMV007839) (Av 6hr): -0.8795
GTP log2 ratio (+MMV007839/-MMV007839) (Av 6hr): -0.6956
Geranylgeranyl pyrophosphate log2 ratio (+MMV007839/-MMV007839) (Av 6hr): -0.7121
Gluconate log2 ratio (+MMV007839/-MMV007839) (Av 6hr): -0.0152
Glucose-6-Phosphate log2 ratio (+MMV007839/-MMV007839) (Av 6hr): -0.5083
Glutamate log2 ratio (+MMV007839/-MMV007839) (Av 6hr): -0.02563
Glutamine log2 ratio (+MMV007839/-MMV007839) (Av 6hr): 1.089
Glutathione disulfide log2 ratio (+MMV007839/-MMV007839) (Av 6hr): -0.1925
Glutathione log2 ratio (+MMV007839/-MMV007839) (Av 6hr): -0.4326
Glyceraldehyde 3-phosphate log2 ratio (+MMV007839/-MMV007839) (Av 6hr): -1.148
Glycerone phosphate log2 ratio (+MMV007839/-MMV007839) (Av 6hr): -0.3794
HLD log2 ratio (+MMV007839/-MMV007839) (Av 6hr): 0.5581
HVDD log2 ratio (+MMV007839/-MMV007839) (Av 6hr): 0.02571
Histidine log2 ratio (+MMV007839/-MMV007839) (Av 6hr): 1.263
Homoserine log2 ratio (+MMV007839/-MMV007839) (Av 6hr): 0.6347
Hydroxy-L-proline log2 ratio (+MMV007839/-MMV007839) (Av 6hr): -0.1227
Hypoxanthine log2 ratio (+MMV007839/-MMV007839) (Av 6hr): 0.2056
IDP log2 ratio (+MMV007839/-MMV007839) (Av 6hr): 0.2522
IMP log2 ratio (+MMV007839/-MMV007839) (Av 6hr): -0.2109
Inosine log2 ratio (+MMV007839/-MMV007839) (Av 6hr): 0.5174
Isoleucine log2 ratio (+MMV007839/-MMV007839) (Av 6hr): 0.1143
LD log2 ratio (+MMV007839/-MMV007839) (Av 6hr): 0.1248
Lactate log2 ratio (+MMV007839/-MMV007839) (Av 6hr): 2.505
Leucine log2 ratio (+MMV007839/-MMV007839) (Av 6hr): 0.06585
Lysine log2 ratio (+MMV007839/-MMV007839) (Av 6hr): 1.1316
Malate log2 ratio (+MMV007839/-MMV007839) (Av 6hr): -0.236
Mannitol log2 ratio (+MMV007839/-MMV007839) (Av 6hr): -0.1109
Methionine log2 ratio (+MMV007839/-MMV007839) (Av 6hr): -0.2224
Myristic acid log2 ratio (+MMV007839/-MMV007839) (Av 6hr): -0.7184
N-Acetyl-glutamate log2 ratio (+MMV007839/-MMV007839) (Av 6hr): -1.091
N-Carbamoyl-L-aspartate log2 ratio (+MMV007839/-MMV007839) (Av 6hr): -1.386
NAD+ log2 ratio (+MMV007839/-MMV007839) (Av 6hr): 0.1336
